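Method: 48-hour compound exposure of cells in 96-well plates, five concentrations, linear interpolation of endpoints. The concentration for full growth arrest is given as TGI.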
Experiments:
Assay in all cases: growth of human tumour cells (NCI), 48 h
ACHN renal = tested on: ACHN renal
CAKI-1 renal = tested on: CAKI-1 renal
HCT-116 colon = tested on: HCT-116 colon
HL-60(TB) leukemia = tested on: HL-60(TB) leukemia
HOP-92 NSCLC = tested on: HOP-92 NSCLC
M14 melanoma = tested on: M14 melanoma
MCF7 breast = tested on: MCF7 breast
MDA-MB-435 = tested on: MDA-MB-435
MDA-N = tested on: MDA-N
NCI-H23 lung = tested on: NCI-H23 lung
NCI-H460 lung = tested on: NCI-H460 lung
NCI-H522 lung = tested on: NCI-H522 lung
OVCAR-5 ovarian = tested on: OVCAR-5 ovarian
PC-3 prostate = tested on: PC-3 prostate
RXF 393 renal = tested on: RXF 393 renal
SN12C renal = tested on: SN12C renal
SR leukemia = tested on: SR leukemia
T-47D breast = tested on: T-47D breast
UACC-257 melanoma = tested on: UACC-257 melanoma
UACC-62 melanoma = tested on: UACC-62 melanoma

Measured: TGI

CCOC(=O)C1=NN(c2ccccc2)C2=CC(C)=NN(C)C(=S)N21
> 100 µM: ACHN renal | CAKI-1 renal | HCT-116 colon | HL-60(TB) leukemia | HOP-92 NSCLC | M14 melanoma | MCF7 breast | MDA-MB-435 | MDA-N | NCI-H23 lung | NCI-H460 lung | NCI-H522 lung | OVCAR-5 ovarian | PC-3 prostate | RXF 393 renal | SN12C renal | SR leukemia | T-47D breast | UACC-257 melanoma | UACC-62 melanoma

Source: PubChem BioAssay (NCI)
